One series has as its target T1, CYP3A4 (Homo sapiens, UniProt P08684).
T1 construct: assayed in human liver microsomes (0.02 mg/mL) with midazolam (15 μM) as a substrate; from tissue; host or cells: human liver microsomes
Description: Mechanism based inhibition of CYP3A4 assay (MBI 3A4). As to conditions: 25 uM, hydroxy-midazolam formation after 30 min preincubation relative to 0 min, human liver microsomes. The series is classed as in vitro ADME. The procedure:
After preincubation, the incubate is diluted 1:10 and the substrate midazolam is added for the main incubation (15 min). The main incubation is quenched with acetonitrile and the formation of hydroxy-midazolam is quantified via LC/MS-MS. The formation of hydroxy-midazolam from the 30 min preincubation relative to the formation from the 0 min preincubation is used as a readout. Values of less than 100% mean that the substrate midazolam is metabolized to a lower extent upon 30 min preincubation compared to 0 min preincubation. In general low effects upon 30 min preincubation are desired (corresponding to values close to 100%/not different to the values determined with water control).

The subject of series [1] is GP2D cells (colorectal cancer, G12D). In words: GP2D proliferation assay (120 h). As to conditions: CellTiter-Glo. In kind it is cell-based. The procedure: GP2D cells (ATCC No. CRL-5807) are dispensed into white 384-well plates, flat and white bottom (Perkin Elmer, 6007680) at a density of 500 cells per well in 40 μl DMEM (Sigma, D6429)+1× GlutaMAX (Gibco, 35050038)+10% FCS (fetal calf serum). […] Compounds (10 mM stock in DMSO) are added at logarithmic dose series using the HP Digital Dispenser D300 (Tecan), including DMSO controls and normalizing for added DMSO. For the TO time point measurement, untreated cells are analyzed at the time of compound addition. Plates are incubated for 120 h, and cell viability is measured using CellTiter-Glo luminescent cell viability reagent (Promega product code G7570). Viability (stated as percent of control) is defined as relative luminescence units RLU of each well divided by the RLU of cells in DMSO controls. IC50 values are determined from viability measurements by non-linear regression using a four-parameter model.
(In general: ATP-based viability assays read luminescence as a measure of living cells.)

Series [2] has as its system MKN1 cells (gastric cancer, wt amplified). Description: MKN1 CTG proliferation assay (120 h), assay 2. The series is classed as cell-based. The settings on record: Homo sapiens, MKN-1, CellTiter-Glo, 200 cells per well. As to the method:
(§1) MKN1 cells (JCRB0252) are dispensed into white 384-well plates, flat and white bottom (Corning Costar, PNr.: 3570) at a density of 400 cells per well in 50 μL RPMI 1640 (PAN-Biotech, PNr.: P04-18047)+10% FCS (HyClone, PNr.: SH30084.03) (assay 1) or into black 384-well plates, flat and clear bottom (Greiner, PNr. 781091) at a density of 200 cells per well in 60 μl RPMI-1640 (Gibco #A10491)+10% FCS (HyClone, PNr.: SH30084.03)+ PenStrep (Gibco, PNr. 15140-122) (assay 2). […] Compounds (10 mM stock in DMSO) are added at logarithmic dose series using the HP Digital Dispenser D300 (Tecan) (assay 1+2) or the ECHO acoustic liquid handler system (Beckman Coulter) (assay 3), including DMSO controls and normalizing for added DMSO. Plates are incubated for 120 h, and cell viability is measured using CellTiter-Glo luminescent cell viability reagent (Promega product code G7570). Viability (stated as percent of control) is defined as relative luminescence units RLU of each well divided by the RLU of cells in DMSO controls. IC50 values are determined from viability measurements by non-linear regression using a four-parameter model.

Series [3] has as its system A375 cells (melanoma, wt, B-Raf mutant). In words: A375 CTG proliferation assay (120 h), negative control. In kind it is cell-based. The settings on record: Homo sapiens, A-375, CellTiter-Glo, negative control cell line. The procedure: A375 cells (ATCC CRL-1619) are dispensed into 384-well plates, flat and clear bottom (Greiner, PNr. 781091) at a density of 300 cells per well in 60 μL DMEM (Sigma D6429)+10% Fetal Calf Serum (HyClone, PNr.: SH30084.03) and incubated at 37° C. in a CO2 incubator overnight. The next day, compounds (10 mM stock in DMSO) are added at logarithmic dose series using the HP Digital Dispenser D300 (Tecan), including DMSO controls. Plates are incubated for 120 h, and cell viability is measured using CellTiter-Glo luminescent cell viability reagent (Promega product code G7570). Viability (stated as percent of control) is defined as relative luminescence units RLU of each well divided by the RLU of cells in DMSO controls. IC50 values are determined from viability measurements by non-linear regression using a four-parameter model.

Series [4] relates to MKN1 cells (gastric cancer, wt amplified). In words: MKN1 CTG proliferation assay (120 h), assay 1. The settings on record: Homo sapiens, MKN-1, CellTiter-Glo, 400 cells per well. In kind it is cell-based. The procedure: as §1
Another series deals with T2, KRAS (G13D)::SOS1 (Homo sapiens, UniProt P01116, C118S/G13D).
T2 construct: KRAS (G13D) 1-169, N-terminal 6His-tag for purification, cleaved off; 6His-tag (N, cleaved yes); TEV cleavage site
Description: KRAS::SOS1 AlphaScreen binding assay, KRAS G13D. The procedure: Low IC50 values in this assay setting are indicative of strong inhibition of protein-protein interaction between SOS1 and KRAS:
These assays measure the inhibitory effect of compounds on KRAS mutant protein-protein interactions using the Alpha Screen technology by Perkin Elmer.
For the chosen highest assay concentration of 100 μM, 150 nL of compound solution are transferred from a 10 mM DMSO compound stock solution. A series of eleven fivefold dilutions per compound are transferred to the assay plate, compound dilutions are tested in duplicates. DMSO are added as backfill to a total volume of 150 nL.
The assays run on a fully automated robotic system in a darkened room below 100 Lux. To 150 nl of compound dilution 10 μl of a mix including KRAS mutant protein, SOS1 (final assay concentrations see above) and GDP nucleotide (Sigma G7127; final assay concentration 10 μM) in assay buffer (1×PBS, 0.1% BSA, 0.05% Tween 20) are added into columns 1-24. […]
Plates are kept at room temperature in a darkened incubator. After an additional 60 minutes incubation time the signal is measured in a PerkinElmer Envision HTS Multilabel Reader using the AlphaScreen specs from PerkinElmer.
IC50 values are calculated and analyzed with Boehringer Ingelheim's MEGALAB IC50 application using a 4 parametric logistic model.

T1 sequence (P08684 whole entry): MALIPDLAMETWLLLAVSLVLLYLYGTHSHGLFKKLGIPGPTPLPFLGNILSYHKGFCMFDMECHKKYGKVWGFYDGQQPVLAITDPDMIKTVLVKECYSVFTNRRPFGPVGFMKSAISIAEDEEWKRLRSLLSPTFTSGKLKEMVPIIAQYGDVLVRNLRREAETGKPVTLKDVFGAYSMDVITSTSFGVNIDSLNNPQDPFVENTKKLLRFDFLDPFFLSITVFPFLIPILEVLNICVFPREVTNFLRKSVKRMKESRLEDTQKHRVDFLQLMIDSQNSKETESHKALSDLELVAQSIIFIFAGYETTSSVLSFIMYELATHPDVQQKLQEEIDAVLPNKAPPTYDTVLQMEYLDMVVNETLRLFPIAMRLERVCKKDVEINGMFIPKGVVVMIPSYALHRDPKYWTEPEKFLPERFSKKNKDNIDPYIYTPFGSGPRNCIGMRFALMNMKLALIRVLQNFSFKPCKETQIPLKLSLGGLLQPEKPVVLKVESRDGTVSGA
T2 sequence (P01116 1-169 isoform P01116-2 G13D/C118S): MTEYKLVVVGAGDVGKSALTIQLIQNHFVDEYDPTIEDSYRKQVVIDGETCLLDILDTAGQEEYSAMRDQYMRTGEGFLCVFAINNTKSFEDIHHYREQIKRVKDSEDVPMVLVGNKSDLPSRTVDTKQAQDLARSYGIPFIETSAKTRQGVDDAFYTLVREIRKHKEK

With `C[C@H]1CNCCCN1c1nccc(-c2noc3c2CCC[C@@]32CCCc3sc(N)c(C#N)c32)n1` (single isomer, unassigned) [IIb-5], the “MBI 3A4” value on CYP3A4 was 65%.
As to `C[C@H](Oc1ccnc(-c2noc3c2CCC[C@@]32CCCc3sc(N)c(C#N)c32)n1)[C@@H]1CCCN1C` [IIb-3], on CYP3A4, the “MBI 3A4” value is reported as 69%. For the same molecule, in series [1], the 50% inhibitory concentration (IC50) – broadly, the midpoint of a concentration-inhibition curve – is 0.171 µM.
Take `C[C@H]1CNCCN1c1nccc(-c2noc3c2CCC[C@@]32CCCc3sc(N)c(C#N)c32)n1` [IIf-1]: the half-inhibitory concentration (IC50) in series [2] is 2.35 µM; in series [1] it was 0.228 µM; in series [3], above 3 µM; in series [4], 0.29 µM.
Take `C[C@H]1[C@@H]2CCCN2CCCN1c1nccc(-c2onc3c2CCC[C@@]32CCCc3sc(N)c(C#N)c32)n1` [Id-1]: the figures for the IC50 (at KRAS (G13D)::SOS1; in series [1]) were 0.089 µM and 0.069 µM, respectively.
Consider `C[C@H](Oc1nccc(-c2onc3c2CCC[C@@]32CCCc3sc(N)c(C#N)c32)n1)[C@@H]1C[C@@H](F)CN1C` [Ie-2], for which the IC50 in series [2] was determined as 3.46 µM; in series [1], 0.526 µM.
Regarding `C[C@H]1CNCCCN1c1nccc(-c2onc3c2CCC[C@@]32CCCc3sc(N)c(C#N)c32)n1` [If-1], the IC50 on KRAS (G13D)::SOS1 was 0.932 µM; in series [1], 0.936 µM. Besides, on CYP3A4, the “MBI 3A4” value turned out to be 60%.

For the origin of these results see patent US20250129096A1, “ANNULATED 2-AMINO-3-CYANO THIOPHENES AND DERIVATIVES FOR THE TREATMENT OF CANCER” (Boehringer Ingelheim Int'l GmbH Corp., priority 2021, published 2025).
